In patent US4086219A, “Nonapeptides and methods for their production” (Parke, Davis & Company, priority 1976, dated 1978):
Where “and” joins values, the source holds several entries; their conditions need not be identical. Identical values can stand only once. Square brackets hold non-standard residues; d marks the D form. Peptide text beside a SMILES is read from it. * marks the point of attachment. X1 = COc1ccc(COC(=O)*)cc1; Cbz = O=C(OCc1ccccc1)*; Boc = CC(C)(C)OC(=O)*; Bn = c1ccc(C*)cc1

Tested on: LRF-induced luteinizing hormone (LH) release
Assay: In vitro LRF antagonist test in rat anterior pituitary cell cultures
Type: cell-based
Description: Nonapeptides of this invention are screened for LRF antagonist activity in vitro using rat anterior pituitary cell cultures as described by Vale et al. [Endocrinology, 91, 562 (1972)]. The inhibition of LRF-induced luteinizing hormone (LH) release into the culture medium is the endpoint in this in vitro bioassay. Active peptides are then tested in vivo by the procedures of Humphrey et al. [Endocrinology, 92, 1515 (1972)]. Antagonist activity is asessed by the inhibition of LRF-induced LH release in the female rat and LRF-induced ovulation in the rabbit.

[1] = Molar Conc. 1.2 × 10^-8, LRF 3.5 × 10^-10
[2] = Molar Conc. 2 × 10^-8, LRF 3.5 × 10^-10
[3] = Molar Conc. 2 × 10^-9, LRF 3.5 × 10^-10
[4] = Molar Conc. 4 × 10^-8, LRF 3.5 × 10^-10
[5] = Molar Conc. 4 × 10^-9, LRF 3.5 × 10^-10
[6] = Molar Conc. 7 × 10^-8, LRF 3.5 × 10^-10
[7] = Molar Conc. 7 × 10^-9, LRF 3.5 × 10^-10
[8] = Molar Conc. 1 × 10^-5, LRF 5 × 10^-10, first series (LRF Control 71.56)
[9] = Molar Conc. 1 × 10^-6, LRF 5 × 10^-10, first series (LRF Control 71.56)
[10] = Molar Conc. 1 × 10^-7, LRF 5 × 10^-10, first series (LRF Control 71.56)
[11] = Molar Conc. 1 × 10^-8, LRF 5 × 10^-10, first series (LRF Control 71.56)
[12] = Molar Conc. 1 × 10^-8, LRF 5 × 10^-10, second series of the compound
[13] = Molar Conc. 1 × 10^-9, LRF 5 × 10^-10, second series of the compound
[14] = Molar Conc. 2.5 × 10^-9, LRF 5 × 10^-10, second series of the compound
[15] = Molar Conc. 5 × 10^-9, LRF 5 × 10^-10, second series of the compound
[16] = Molar Conc. 1 × 10^-9, LRF 3.5 × 10^-10
[17] = Molar Conc. 1 × 10^-10, LRF 3.5 × 10^-10
[18] = Molar Conc. 2 × 10^-10, LRF 3.5 × 10^-10
[19] = Molar Conc. 3.5 × 10^-9, LRF 3.5 × 10^-10
[20] = Molar Conc. 3.5 × 10^-10, LRF 3.5 × 10^-10
[21] = Molar Conc. 6 × 10^-9, LRF 3.5 × 10^-10
[22] = Molar Conc. 6 × 10^-10, LRF 3.5 × 10^-10
[23] = Molar Conc. 2.5 × 10^-10, LRF 5 × 10^-10, second series of the compound
[24] = Molar Conc. 5 × 10^-10, LRF 5 × 10^-10, second series of the compound
[25] = Molar Conc. 1 × 10^-8, LRF 3.5 × 10^-10
[26] = Molar Conc. 2.5 × 10^-8, LRF 3.5 × 10^-10
[27] = Molar Conc. 2.5 × 10^-9, LRF 3.5 × 10^-10
[28] = Molar Conc. 2.5 × 10^-10, LRF 3.5 × 10^-10
[29] = Molar Conc. 6 × 10^-8, LRF 3.5 × 10^-10

## CC(C)C[C@H](NC(=O)[C@@H](Cc1ccccc1)NC(=O)[C@H](Cc1ccc(O)cc1)NC(=O)[C@H](CO)NC(=O)[C@H](Cc1c[nH]c2ccccc12)NC(=O)[C@H](CCC(N)=O)NC(=O)OCc1ccccc1)C(=O)N[C@@H](CCCNC(=N)N)C(=O)N1CCC[C@H]1C(=O)NCC(N)=O [N^α -Benzyloxycarbonyl-L-glutaminyl-L-tryptophyl-L-seryl-L-tyrosyl-D-phenylalanyl-L-leucyl-L-arginyl-L-prolyl-glycinamide] (Cbz-QWSY[dF]LRPG-NH2)
[1]
  % LH Release Inhibition: 71%
  LH Value: 13.47 ng/mL
[2]
  % LH Release Inhibition: 90%
  LH Value: 10.07 ng/mL
[3]
  % LH Release Inhibition: 21%
  LH Value: 22.43 ng/mL
[4]
  % LH Release Inhibition: 91%
  LH Value: 9.79 ng/mL
[5]
  % LH Release Inhibition: 30%
  LH Value: 20.76 ng/mL
[6]
  % LH Release Inhibition: 93%
  LH Value: 9.49 ng/mL
[7]
  % LH Release Inhibition: 42%
  LH Value: 18.60 ng/mL

## CC[C@H](C)[C@H](NC(=O)OCc1ccccc1)C(=O)N[C@@H](Cc1c[nH]c2ccccc12)C(=O)N[C@@H](CO)C(=O)N[C@@H](Cc1ccc(O)cc1)C(=O)N[C@H](Cc1c[nH]c2ccccc12)C(=O)N[C@@H](CC(C)C)C(=O)N[C@@H](CCCNC(=N)N)C(=O)N1CCC[C@H]1C(=O)NCC(N)=O [N^α -Benzyloxycarbonyl-L-isoleucyl-L-tryptophyl-L-seryl-L-tyrosyl-D-tryptophyl-L-leucyl-L-arginyl-L-prolyl-glycinamide] (Cbz-IWSY[dW]LRPG-NH2)
[8]
  % LH Release Inhibition: 96%
  LH Value: 20.69 ng/mL
[9]
  % LH Release Inhibition: 96%
  LH Value: 20.24 ng/mL
[10]
  % LH Release Inhibition: 96%
  LH Value: 20.50 ng/mL
[11]
  % LH Release Inhibition: 95%
  LH Value: 21.04 ng/mL
[12]
  % LH Release Inhibition: 98%
  LH Value: 14.00 ng/mL
[13]
  % LH Release Inhibition: 41%
  LH Value: 36.46 ng/mL
[14]
  % LH Release Inhibition: 70%
  LH Value: 24.96 ng/mL
[15]
  % LH Release Inhibition: 87%
  LH Value: 18.49 ng/mL

## CC(C)C[C@H](NC(=O)[C@@H](Cc1ccccc1)NC(=O)[C@H](Cc1ccc(O)cc1)NC(=O)[C@H](CO)NC(=O)[C@H](Cc1c[nH]c2ccccc12)NC(=O)[C@H](COCc1ccccc1)NC(=O)OCc1ccccc1)C(=O)N[C@@H](CCCNC(=N)N)C(=O)N1CCC[C@H]1C(=O)NCC(N)=O.Cl [N^α -Benzyloxycarbonyl-O-benzyl-L-seryl-L-tryptophyl-L-seryl-L-tyrosyl-D-phenylalanyl-L-leucyl-L-arginyl-L-prolyl-glycinamide hydrochloride] (Cbz-S(Bn)WSY[dF]LRPG-NH2)
[16]
  % LH Release Inhibition: 56%
  LH Value: 17.85 ng/mL
[17]
  % LH Release Inhibition: 0%
  LH Value: 34.50 ng/mL
[3]
  % LH Release Inhibition: 88%
  LH Value: 9.84 ng/mL
[18]
  % LH Release Inhibition: 14%
  LH Value: 28.47 ng/mL
[19]
  % LH Release Inhibition: 99%
  LH Value: 6.96 ng/mL
[20]
  % LH Release Inhibition: 36%
  LH Value: 23.09 ng/mL
[21]
  % LH Release Inhibition: 109%
  LH Value: 4.59 ng/mL
[22]
  % LH Release Inhibition: 52%
  LH Value: 18.89 ng/mL

## COc1ccc(COC(=O)N[C@@H](COCc2ccccc2)C(=O)N[C@@H](Cc2c[nH]c3ccccc23)C(=O)N[C@@H](CO)C(=O)N[C@@H](Cc2ccc(O)cc2)C(=O)N[C@H](Cc2ccccc2)C(=O)N[C@@H](CC(C)C)C(=O)N[C@@H](CCCNC(=N)N)C(=O)N2CCC[C@H]2C(=O)NCC(N)=O)cc1.Cl [N^α -p-Methoxybenzyloxycarbonyl-O-benzyl-L-seryl-L-tryptophyl-L-seryl-L-tyrosyl-D-phenylalanyl-L-leucyl-L-arginyl-L-prolyl-glycinamide hydrochloride] (X1-S(Bn)WSY[dF]LRPG-NH2)
[10]
  % LH Release Inhibition: 99%
  LH Value: 18.59 ng/mL
[11]
  % LH Release Inhibition: 105%
  LH Value: 15.95 ng/mL
[12]
  % LH Release Inhibition: 88%
  LH Value: 16.01 ng/mL
[13]
  % LH Release Inhibition: 41%
  LH Value: 32.94 ng/mL
[23]
  % LH Release Inhibition: 35%
  LH Value: 34.87 ng/mL
[24]
  % LH Release Inhibition: 52%
  LH Value: 28.95 ng/mL

## CC(C)C[C@H](NC(=O)[C@@H](Cc1c[nH]c2ccccc12)NC(=O)[C@H](Cc1ccc(O)cc1)NC(=O)[C@H](CO)NC(=O)[C@H](Cc1c[nH]c2ccccc12)NC(=O)[C@H](COCc1ccccc1)NC(=O)OC(C)(C)C)C(=O)N[C@@H](CCCNC(=N)N)C(=O)N1CCC[C@H]1C(=O)NCC(N)=O [N^α -t-Butoxycarbonyl-O-benzyl-L-seryl-L-tryptophyl-L-seryl-L-tyrosyl-D-tryptophyl-L-leucyl-L-arginyl-L-prolyl-glycinamide] (Boc-S(Bn)WSY[dW]LRPG-NH2)
[25]
  % LH Release Inhibition: 104%
  LH Value: 8.96 ng/mL
[16]
  % LH Release Inhibition: 64%
  LH Value: 21.44 ng/mL
[26]
  % LH Release Inhibition: 104%
  LH Value: 8.95 ng/mL
[27]
  % LH Release Inhibition: 72%
  LH Value: 18.85 ng/mL
[28]
  % LH Release Inhibition: 39%
  LH Value: 29.05 ng/mL
[29]
  % LH Release Inhibition: 108%
  LH Value: 7.80 ng/mL
[21]
  % LH Release Inhibition: 99%
  LH Value: 10.64 ng/mL
[22]
  % LH Release Inhibition: 50%
  LH Value: 25.53 ng/mL

## LRF: luteinizing hormone releasing factor, also called luteinizing hormone releasing hormone (LH-RH); stimulates secretion of luteinizing hormone from the anterior pituitary (QHWSYGLRPG; Gonadoliberin-1; UniProt P01148 24-33, looked up) [reference compound]
LRF alone, Molar Conc. 3.5 × 10^-10 (control of each series)
  LH Value: 26.23 ng/mL and 40.92 ng/mL and 32.11 ng/mL
LRF alone, Molar Conc. 5 × 10^-10 (control of each series)
  LH Value: 71.56 ng/mL and 47.31 ng/mL and 52.80 ng/mL
